# Laboratory results as given in US11160788B2, “Caspase-1 inhibition and uses thereof for prevention and treatment of neurological conditions” (priority 2016, dated 2021).
# Experiments:
# J20 mice = test: Barnes maze spatial memory, treatment of symptomatic J20 mice; format: in vivo, mouse
# Source text: FIG. 8: VX-765 treatment restores cognitive function in J20 mice. (a) Experimental paradigm. Intraperitoneal vehicle-injected wild type (WT+Vehicle; n=13) and J20 mice (J20+Vehicle: n=9), and VX-765-injected J20 mice (J20+VX-765: n=9) mice were behaviourally assessed at 5 different time-points: baseline before treatment (baseline untreated J20 were grouped together; n=18), after 3 IP injections/wk of VX-765 or vehicle (Treatment 1), after 6 additional injections over 2 weeks (Treatment 2), after 4-week Washout period, and after an additional 3 injections in one week (Treatment 3). Mice were sacrificed at 8 months of age after Treatment 3 (b) NOR Discrimination index (Treatment main effect, F(2,20)=85.8, p<0.0001; Time main effect, F(4,80)=4.188, p=0.0039; Treatment×Time interaction, F(8,80)=[…], two-way repeated-measures ANOVA, Dunnett's post-hoc compared to J20+Vehicle). (c) Distance traveled during Open Field task. Data analyzed by repeated measures two-way ANOVA (Treatment main effect, F(2,19)=11.47, p=0.0005; Treatment×Time interaction, F(8,76)=5.69, p<0.0001, two-way repeated-measures ANOVA, Dunnett's post-hoc compared to J20+Vehicle). (d-i) Barnes maze analysis. Learning acquisition (d,g), probe test primary latency and errors (e,h), and target hole preference (f,i); # of pokes of each hole labelled +1 to +9 to the right or −1 to −9 to the left of the target hole during the probe) after Treatment 2 (d-f) and Washout (g-i). Probe tests were analyzed (Treatment 2 primary latency, F(2,52)=5.879, p=0.0050; Treatment 2 primary errors, F(2,52)=9.998, p=0.0002; Washout primary latency, F(2,22)=4.076, p=0.0312; Washout primary errors, F(2,22)=10.84, p=0.0005, ANOVA, Tukey's post-hoc). * p<0.05, ***p<0.001, ****p<0.0001.
# FIG. 9: VX-765 dose-dependently restores cognitive function in J20 mice. (a) NOR discrimination index after VX-765 dose response at Treatment 1 (F(3,24)=20.42, p<0.0001, ANOVA, Dunnett's post-hoc compared to J20 0 mg/kg), Treatment 2 (F(3,23)=12.83, p<0.0001, ANOVA, Dunnett's post-hoc compared to J20 0 mg/kg), Washout, and Treatment 3 (F(3,23)=8.828, p=0.0004, ANOVA, Dunnett's post-hoc compared to J20 0 mg/kg). Note that the 50 mg/kg dose was not performed at the same time and is placed here for comparison purposes only. Nevertheless, the discrimination index was stable between experiments (b-g) Barnes maze Treatment 2 (b-d) and Washout (e-g) learning acquisition (b,e), probe test (c,f), and target hole preference (d,g). For T2 primary errors, F(2,14)=5.69, p=0.0155, ANOVA, Dunnett's post-hoc compared to J20+Vehicle. * p<0.05, ***p<0.001, ****p<0.0001.
# Anxiety and hyperactivity are monitored in an open-field paradigm, episodic memory with the NOR, spatial memory with the Barnes maze, and short or long term working memory with the Y maze before and after treatments. Repeated measures are acceptable for the NOR, Barnes and Y maze^2-4.
# Five month old mice were behaviorally and longitudinally assessed before treatment (baseline), after 3 injections/week of 50 mg/kg VX-765 (Treatment 1; T1), after an additional 2 weeks of injections (Treatment 2; T2), after 4 weeks without treatment (Washout; WO), and after 3 more injections/week (Treatment 3; T3) before sacrificing the mice at 8 months of age as illustrated in FIG. 8a. […] Results were consistent across individual mice (FIG. 15c). […] However, during the probe test, the primary latency, primary errors (FIG. 8e) and the ability to find the target (T) escape hatch (FIG. 8f) were clearly impaired in vehicle-injected J20 compared to WT littermates. […] After WO, all mice performed well during the training phase of the Barnes maze (FIG. 8g). […] J20 mice performance in the Y maze working memory task was consistently low but not always statistically different from WT or treated J20 mice (FIG. 15e).
# mouse Casp11 = target: T1, mouse Casp11 (Mus musculus, UniProt P70343); test: Selectivity against mouse Casp11; format: biochemical; conditions: recombinant caspases
# T1 sequence (P70343 81-266 limits assumed): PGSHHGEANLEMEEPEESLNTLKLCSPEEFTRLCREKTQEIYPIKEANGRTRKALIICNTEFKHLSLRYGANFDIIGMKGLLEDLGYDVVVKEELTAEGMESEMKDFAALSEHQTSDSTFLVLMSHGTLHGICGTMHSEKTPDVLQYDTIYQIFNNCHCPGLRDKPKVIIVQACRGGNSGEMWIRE
# T1 sequence (P70343 286-373 limits assumed): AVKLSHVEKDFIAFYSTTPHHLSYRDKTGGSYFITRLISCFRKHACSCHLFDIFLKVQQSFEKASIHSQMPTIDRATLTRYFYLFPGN
# Description: FIG. 14: Selectivity and blood brain permeability of VX-765 and VRT-043198. (a-b) IC50 of VX-765 (a) and VRT-043198 (b) against human Casp1-10. (c-d) IC50 of VX-765 (c) and VRT-043198 (d) against mouse Casp1 and Casp11. (e) Blood brain barrier permeability and presence of VX-765 and VRT-043198 in 3 wild type and 4 J20 mice brain cortex and hippocampus and in plasma. Ratios of brain levels to plasma levels are calculated.
smiles,measurement,setting,value
"CCO[C@@H]1OC(=O)C[C@@H]1NC(=O)[C@@H]1CCCN1C(=O)[C@@H](NC(=O)c1ccc(N)c(Cl)c1)C(C)(C)C [VX-765, (S)-1-((S)-2-{[1-(4-amino-3-chloro-phenyl)-methanoyl]-amino}-3,3-dimethyl-butanoyl)-pyrrolidine-2-carboxylic acid ((2R,3S)-2-ethoxy-5-oxo-tetrahydro-furan-3-yl)-amide]",Barnes maze ability to recognize the escape hatch in probe test,"J20 mice; 10 mg/kg, after Treatment 2",improved in their ability to recognize the escape hatch
same,Barnes maze primary latency,"J20 mice; 10 mg/kg, after Treatment 2",remained impaired in primary latency
same,Barnes maze primary latency and errors,"J20 mice; 10 mg/kg, after washout",No significant difference
same,Barnes maze ability to recognize the escape hatch in probe test,"J20 mice; 25 mg/kg, after Treatment 2",improved in their ability to recognize the escape hatch
same,Barnes maze primary errors,"J20 mice; 25 mg/kg, after Treatment 2",decreased
same,Barnes maze primary latency,"J20 mice; 25 mg/kg, after Treatment 2",remained impaired in primary latency
same,Barnes maze primary latency and errors,"J20 mice; 25 mg/kg, after washout",No significant difference
same,Barnes maze recognition of the position of the escape hatch,"J20 mice; 25 mg/kg, after washout",retained the ability to recognize the position of the escape hatch
same,"Barnes maze probe test: primary latency, primary errors, finding target hatch","J20 mice; 50 mg/kg IP, after Treatment 2",eliminated these spatial memory deficits
same,Barnes maze ability to find the target hatch,"J20 mice; 50 mg/kg IP, after washout",performed better than vehicle-injected J20 mice
same,Barnes maze probe test primary latency and errors,"J20 mice; 50 mg/kg IP, after washout",appeared normal in primary latency and errors
same,inhibition of mouse Casp1 compared to mouse Casp11,mouse Casp11,strongly inhibited compared to inflammatory mouse Casp11
